In brackets after ≈: the same amount, converted by molar mass.
How the values were obtained:
[1] = test system: Bacillus cereus ATCC 14579; conditions: cited from earlier work
[2] = test system: B. anthracis Sterne strain; assay: microbe, parasite or virus in culture; assay type: cell-based; conditions: Bacillus anthracis; 16 h at 37 °C; read-out: MIC B. anthracis Sterne
[3] = test system: B. anthracis ovine strain (animal isolate); assay: microbe, parasite or virus in culture; assay type: cell-based; conditions: Bacillus anthracis; 16 h at 37 °C; read-out: MIC B. anthracis Ovine
[4] = test system: B. anthracis pathogenic strain (human isolate); assay: microbe, parasite or virus in culture; assay type: cell-based; conditions: Bacillus anthracis; 16 h at 37 °C; read-out: MIC B. anthracis Pathogenic
B. cereus (ATCC 10876) = assay: microbe, parasite or virus in culture; assay type: cell-based; conditions: Bacillus cereus, ATCC10876; 16 h at 37 °C; read-out: MIC B. cereus
E. faecalis (ATCC 29212) = assay: microbe, parasite or virus in culture; assay type: cell-based; conditions: Enterococcus faecalis, ATCC29212; 16 h at 37 °C; read-out: MIC E. faecalis
[5] = test system: B. cereus ATCC 14579 strains resistant to known antibiotics; assay: microbe, parasite or virus in culture; assay type: cell-based, Bacillus cereus
in vitro = conditions: human
B. cereus ATCC 14579 = assay: microbe, parasite or virus in culture; assay type: cell-based, Bacillus cereus; conditions: Bacillus cereus, ATCC14579

Row | Compound | MIC [1] | MIC [2] | MIC [3] | MIC [4] | MIC (B. cereus (ATCC 10876)) | MIC (E. faecalis (ATCC 29212)) | MIC of the antibiotic [5] | IC50 at 24 h (in vitro) | IC50 at 48 h (in vitro) | MBC (B. cereus ATCC 14579) | MIC (B. cereus ATCC 14579)
1 | CC1(C)S[C@@H]2[C@H](NC(=O)[C@H](N)c3ccccc3)C(=O)N2[C@H]1C(=O)O [Ampicillin] | 0.25 mg/L (≈ 0.715 µM) | – | – | – | – | – | – | – | – | – | –
2 | O=C(N[C@H](CO)[C@H](O)c1ccc([N+](=O)[O-])cc1)C(Cl)Cl [Chloramphenicol, reference compound] | 2.5 mg/L (≈ 7.74 µM) | 25 µM (≈ 8.08 µg/mL) | 25 µM (≈ 8.08 µg/mL) | 25 µM (≈ 8.08 µg/mL) | 19 µM (≈ 6.14 µg/mL) | 19 µM (≈ 6.14 µg/mL) | – | – | – | – | –
3 | O=C(O)c1cn(C2CC2)c2cc(N3CCNCC3)c(F)cc2c1=O [Ciprofloxacin] | 0.32 mg/L (≈ 0.966 µM) | – | – | – | – | – | 50 mg/L | – | – | – | –
4 | CCCCCCCCCCCCS[C@H]1C[C@H](O)[C@@H](O)[C@H](C)O1 [Compound 2] | – | 24 µM (≈ 7.98 µg/mL) | 48 µM (≈ 16 µg/mL) | 48 µM (≈ 16 µg/mL) | 48 µM (≈ 16 µg/mL) | > 48 µM | – | > 50 µM | > 50 µM | – | –
5 | CCCCCCCCCCCC[C@H]1C[C@H](O)[C@@H](O)[C@H](C)O1 [Compound 3] | – | 27 µM (≈ 8.11 µg/mL) | 54 µM (≈ 16.2 µg/mL) | 54 µM (≈ 16.2 µg/mL) | 27 µM (≈ 8.11 µg/mL) | > 54 µM | – | > 100 µM | 100 µM | – | –
6 | CCCCCCCCCCCCO[C@H]1C[C@H](O)[C@H](O)[C@H](C)O1 [Compound 4] | – | 25 µM (≈ 7.91 µg/mL) | 25 µM (≈ 7.91 µg/mL) | 25 µM (≈ 7.91 µg/mL) | 25 µM (≈ 7.91 µg/mL) | > 50 µM | – | 100 µM | 50 µM | – | –
7 | CCCCCCCCCCCCO[C@@H]1C[C@H](O)[C@@H](O)[C@H](C)O1 [Compound 5] | – | 202 µM (≈ 63.9 µg/mL) | 101 µM (≈ 32 µg/mL) | 101 µM (≈ 32 µg/mL) | 202 µM (≈ 63.9 µg/mL) | 101 µM (≈ 32 µg/mL) | – | – | – | – | –
8 | CCCCCCCCCCCCO[C@@H]1O[C@@H](C)[C@H](O)[C@@H](O)[C@H]1O [Compound 6] | – | 24 µM (≈ 7.98 µg/mL) | 48 µM (≈ 16 µg/mL) | 24 µM (≈ 7.98 µg/mL) | – | 48 µM (≈ 16 µg/mL) | – | – | – | 32 mg/L (≈ 96.2 µM) | 32 mg/L (≈ 96.2 µM)
9 | CCCCCCCCCCCCO[C@H]1C[C@H](O)[C@@H](O)CO1 [Compound 7] | – | 26 µM (≈ 7.86 µg/mL) | 52 µM (≈ 15.7 µg/mL) | 52 µM (≈ 15.7 µg/mL) | – | 52 µM (≈ 15.7 µg/mL) | – | > 100 µM | 100 µM | 16 mg/L (≈ 52.9 µM) | 16 mg/L (≈ 52.9 µM)
10 | CCCCCCCCCCCCO[C@@H]1C[C@H](O)[C@@H](O)CO1 [Compound 8] | – | 26 µM (≈ 7.86 µg/mL) | 52 µM (≈ 15.7 µg/mL) | 26 µM (≈ 7.86 µg/mL) | – | 52 µM (≈ 15.7 µg/mL) | – | – | – | – | –
11 | CCCCCCCCCCCCO[C@@H]1C[C@@H](O)[C@H](O)[C@@H](C)O1 [Compound 9] | – | 50 µM (≈ 15.8 µg/mL) | 50 µM (≈ 15.8 µg/mL) | 50 µM (≈ 15.8 µg/mL) | 25 µM (≈ 7.91 µg/mL) | 50 µM (≈ 15.8 µg/mL) | – | 100 µM | 50 µM | – | –
12 | CCCCCCCCCCCC[C@@H]1C[C@@H](O)[C@H](O)[C@@H](C)O1 [Compound 10, 1-(2,6-Dideoxy-α-D-arabino-hexopyranosyl)dodecane] | – | 27 µM (≈ 8.11 µg/mL) | 27 µM (≈ 8.11 µg/mL) | 27 µM (≈ 8.11 µg/mL) | 27 µM (≈ 8.11 µg/mL) | > 54 µM | – | > 100 µM | > 100 µM | 32 mg/L (≈ 106 µM) | 32 mg/L (≈ 106 µM)
13 | CCCCCCCCCCCCO[C@H]1O[C@H](C)C[C@H](O)[C@H]1O [Compound 11, dodecyl 4,6-dideoxy-α-D-xylo-hexopyranoside] | – | 12.6 µM (≈ 3.99 µg/mL) | 12.6 µM (≈ 3.99 µg/mL) | 12.6 µM (≈ 3.99 µg/mL) | 12.6 µM (≈ 3.99 µg/mL) | 12.6 µM (≈ 3.99 µg/mL) | – | – | 50 µM | – | –
14 | CCCCCCCCCCCCO[C@@H]1O[C@H](C)C[C@H](O)[C@H]1O [Compound 12] | – | > 405 µM | > 405 µM | > 405 µM | > 405 µM | > 405 µM | – | – | 50 µM | – | –
15 | CCCCCCCCCCCC[C@@H]1C[C@@H](O)[C@H](O)[C@@H](CO)O1 [Compound 14] | – | 104 µM (≈ 32.9 µg/mL) | 51 µM (≈ 16.1 µg/mL) | 51 µM (≈ 16.1 µg/mL) | 51 µM (≈ 16.1 µg/mL) | 51 µM (≈ 16.1 µg/mL) | – | – | – | – | –
16 | CCCCCCCCCCCCO[C@H]1O[C@H](CO)C[C@H](O)[C@H]1O [Compound 15] | – | 51 µM (≈ 17 µg/mL) | 51 µM (≈ 17 µg/mL) | 51 µM (≈ 17 µg/mL) | 51 µM (≈ 17 µg/mL) | 51 µM (≈ 17 µg/mL) | – | – | – | – | –

Row | Compound | MIC [1] | MIC [2] | MIC [3] | MIC [4] | MIC (B. cereus (ATCC 10876)) | MIC (E. faecalis (ATCC 29212)) | MIC of the antibiotic [5] | IC50 at 24 h (in vitro) | IC50 at 48 h (in vitro) | MBC (B. cereus ATCC 14579) | MIC (B. cereus ATCC 14579)
17 | CCCCCCCCCCCCO[C@H]1O[C@H](C)[C@@H](O)[C@H](O)[C@@H]1O [Compound 16] | – | 24 µM (≈ 7.98 µg/mL) | > 48 µM | 24 µM (≈ 7.98 µg/mL) | 48 µM (≈ 16 µg/mL) | > 48 µM | – | – | – | – | –
18 | CCCCCCCCCCCCO[C@@H]1C[C@@H](O)[C@H](O)CO1 [Compound 17] | – | 26 µM (≈ 7.86 µg/mL) | 52 µM (≈ 15.7 µg/mL) | 52 µM (≈ 15.7 µg/mL) | 52 µM (≈ 15.7 µg/mL) | > 52 µM | – | > 100 µM | > 100 µM | 16 mg/L (≈ 52.9 µM) | 16 mg/L (≈ 52.9 µM)
19 | CCCCCCCCCCCCO[C@H]1C[C@@H](O)[C@H](O)CO1 [Compound 18] | – | 26 µM (≈ 7.86 µg/mL) | 52 µM (≈ 15.7 µg/mL) | 26 µM (≈ 7.86 µg/mL) | 52 µM (≈ 15.7 µg/mL) | 52 µM (≈ 15.7 µg/mL) | – | > 100 µM | > 50 µM | – | –
20 | CCCCCCCCCCCCS[C@@H]1C[C@@H](O)[C@H](O)CO1 [Compound 19] | – | 50 µM (≈ 15.9 µg/mL) | 50 µM (≈ 15.9 µg/mL) | 25 µM (≈ 7.96 µg/mL) | 25 µM (≈ 7.96 µg/mL) | 50 µM (≈ 15.9 µg/mL) | – | – | – | – | –
21 | CCCCCCCCCCCCS[C@H]1C[C@@H](O)[C@H](O)CO1 [Compound 20] | – | 25 µM (≈ 7.96 µg/mL) | 50 µM (≈ 15.9 µg/mL) | 50 µM (≈ 15.9 µg/mL) | 50 µM (≈ 15.9 µg/mL) | > 50 µM | – | – | – | 32 mg/L (≈ 100 µM) | 32 mg/L (≈ 100 µM)
22 | CCCCCCCCCCCC[C@@H]1C[C@@H](O)[C@H](O)CO1 [Compound 21, 1-(2-Deoxy-α-D-threo-pentopyranosyl)dodecane] | – | 28 µM (≈ 8.02 µg/mL) | 28 µM (≈ 8.02 µg/mL) | 28 µM (≈ 8.02 µg/mL) | 28 µM (≈ 8.02 µg/mL) | 56 µM (≈ 16 µg/mL) | – | > 100 µM | 100 µM | – | –
23 | CC[C@H]1OC(=O)[C@H](C)[C@@H](O[C@H]2C[C@@](C)(OC)[C@@H](O)[C@H](C)O2)[C@H](C)[C@@H](O[C@@H]2O[C@H](C)C[C@H](N(C)C)[C@H]2O)[C@](C)(O)C[C@@H](C)C(=O)[C@H](C)[C@@H](O)[C@]1(C)O [Erythromycin] | 8 mg/L (≈ 10.9 µM) | – | – | – | – | – | 20 mg/L | – | – | – | –
24 | CNC(C)C1CCC(N)C(OC2C(N)CC(N)C(OC3OCC(C)(O)C(NC)C3O)C2O)O1 (stereo not shown) [Gentamicin] | 4 mg/L (≈ 8.38 µM) | – | – | – | – | – | – | – | – | – | –
25 | NC[C@H]1O[C@H](O[C@H]2[C@H](O)[C@@H](O[C@H]3O[C@H](CO)[C@@H](O)[C@H](N)[C@H]3O)[C@H](N)C[C@@H]2N)[C@H](O)[C@@H](O)[C@@H]1O [Kanamycin] | 15 mg/L (≈ 31 µM) | – | – | – | – | – | – | – | – | – | –
26 | CCn1cc(C(=O)O)c(=O)c2cc(F)c(N3CCNCC3)cc21 [Norfloxacin] | 1.25 mg/L (≈ 3.91 µM) | – | – | – | – | – | – | – | – | – | –
27 | CO[C@H]1/C=C/O[C@@]2(C)Oc3c(C)c(O)c4c(O)c(c(/C=N/N5CCN(C)CC5)c(O)c4c3C2=O)NC(=O)/C(C)=C\C=C\[C@H](C)[C@H](O)[C@@H](C)[C@@H](O)[C@@H](C)[C@H](OC(C)=O)[C@@H]1C [Rifampicin] | 0.5 mg/L (≈ 0.608 µM) | – | – | – | – | – | – | – | – | – | –
28 | CN(C)[C@@H]1C(O)=C(C(N)=O)C(=O)[C@@]2(O)C(O)=C3C(=O)c4c(O)cccc4[C@@](C)(O)[C@H]3C[C@@H]12 [Tetracycline] | 2.5 mg/L (≈ 5.63 µM) | – | – | – | – | – | 50 mg/L | – | – | – | –
29 | Colistin | > 5000 mg/L | – | – | – | – | – | – | – | – | – | –
30 | Daptomycin | 3.125 mg/L | – | – | – | – | – | – | – | – | – | –
31 | Penicillin | – | – | – | – | – | – | 20 mg/L | – | – | – | –

From paper PMC6242839 (Nature Communications, 2018)
